Experimental data from patent publication US12275731B2, “Azaindole inhibitors of wild-type and mutant forms of LRRK2” (DANA-FARBER CANCER INSTITUTE, INC., priority 2018, dated 2025).

What was measured:
Experiment in all cases: KinomeScan profiling
Format in all cases: binding
LATS1 = biological target: T1, LATS1 (Homo sapiens, UniProt O95835); conditions: LATS1, 1 μM; read-out: % control
T1 construct: purchased KinomeScan®
T1 sequence (O95835 1-1130): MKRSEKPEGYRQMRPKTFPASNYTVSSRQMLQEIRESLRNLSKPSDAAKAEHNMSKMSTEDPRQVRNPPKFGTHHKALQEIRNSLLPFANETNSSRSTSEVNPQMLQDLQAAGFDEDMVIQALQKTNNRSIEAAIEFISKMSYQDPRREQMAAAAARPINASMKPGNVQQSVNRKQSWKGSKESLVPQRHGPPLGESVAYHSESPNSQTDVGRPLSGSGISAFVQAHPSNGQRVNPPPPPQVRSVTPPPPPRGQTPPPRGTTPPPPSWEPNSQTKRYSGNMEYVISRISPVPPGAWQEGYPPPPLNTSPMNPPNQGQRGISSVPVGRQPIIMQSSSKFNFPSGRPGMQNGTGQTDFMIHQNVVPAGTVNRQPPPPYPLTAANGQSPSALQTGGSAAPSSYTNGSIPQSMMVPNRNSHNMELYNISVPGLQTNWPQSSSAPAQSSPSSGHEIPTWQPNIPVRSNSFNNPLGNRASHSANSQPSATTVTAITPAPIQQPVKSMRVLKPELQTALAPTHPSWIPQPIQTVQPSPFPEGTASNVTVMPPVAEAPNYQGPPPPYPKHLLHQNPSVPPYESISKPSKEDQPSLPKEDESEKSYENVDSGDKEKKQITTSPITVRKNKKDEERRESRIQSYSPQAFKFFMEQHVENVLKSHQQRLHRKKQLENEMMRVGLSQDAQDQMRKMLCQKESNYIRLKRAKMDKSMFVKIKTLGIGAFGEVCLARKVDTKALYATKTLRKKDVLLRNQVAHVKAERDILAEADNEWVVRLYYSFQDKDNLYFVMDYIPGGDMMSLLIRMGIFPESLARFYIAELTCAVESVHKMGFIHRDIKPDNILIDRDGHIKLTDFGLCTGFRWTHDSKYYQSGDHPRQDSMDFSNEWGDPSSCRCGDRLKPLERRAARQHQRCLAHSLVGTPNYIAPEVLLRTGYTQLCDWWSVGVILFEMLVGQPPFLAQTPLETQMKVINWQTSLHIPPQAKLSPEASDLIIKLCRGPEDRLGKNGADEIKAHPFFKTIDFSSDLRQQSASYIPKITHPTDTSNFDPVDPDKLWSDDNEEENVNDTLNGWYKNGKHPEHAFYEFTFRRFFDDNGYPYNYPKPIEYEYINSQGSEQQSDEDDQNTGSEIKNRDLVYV
Procedure, shortened: (§1)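 The panel spans 468 kinases, and each inventive compound was applied at 1 μM from DMSO. Lower % control means stronger binding; the activity cut-off is set at less than 35%.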

EGFR(E746-A750del) = EGFR(E746-A750del) (Homo sapiens, UniProt P00533, DEL746-750); conditions: read-out: % control
Sequence of EGFR(E746-A750del) (P00533 with tags, fused parts or gaps DEL746-750): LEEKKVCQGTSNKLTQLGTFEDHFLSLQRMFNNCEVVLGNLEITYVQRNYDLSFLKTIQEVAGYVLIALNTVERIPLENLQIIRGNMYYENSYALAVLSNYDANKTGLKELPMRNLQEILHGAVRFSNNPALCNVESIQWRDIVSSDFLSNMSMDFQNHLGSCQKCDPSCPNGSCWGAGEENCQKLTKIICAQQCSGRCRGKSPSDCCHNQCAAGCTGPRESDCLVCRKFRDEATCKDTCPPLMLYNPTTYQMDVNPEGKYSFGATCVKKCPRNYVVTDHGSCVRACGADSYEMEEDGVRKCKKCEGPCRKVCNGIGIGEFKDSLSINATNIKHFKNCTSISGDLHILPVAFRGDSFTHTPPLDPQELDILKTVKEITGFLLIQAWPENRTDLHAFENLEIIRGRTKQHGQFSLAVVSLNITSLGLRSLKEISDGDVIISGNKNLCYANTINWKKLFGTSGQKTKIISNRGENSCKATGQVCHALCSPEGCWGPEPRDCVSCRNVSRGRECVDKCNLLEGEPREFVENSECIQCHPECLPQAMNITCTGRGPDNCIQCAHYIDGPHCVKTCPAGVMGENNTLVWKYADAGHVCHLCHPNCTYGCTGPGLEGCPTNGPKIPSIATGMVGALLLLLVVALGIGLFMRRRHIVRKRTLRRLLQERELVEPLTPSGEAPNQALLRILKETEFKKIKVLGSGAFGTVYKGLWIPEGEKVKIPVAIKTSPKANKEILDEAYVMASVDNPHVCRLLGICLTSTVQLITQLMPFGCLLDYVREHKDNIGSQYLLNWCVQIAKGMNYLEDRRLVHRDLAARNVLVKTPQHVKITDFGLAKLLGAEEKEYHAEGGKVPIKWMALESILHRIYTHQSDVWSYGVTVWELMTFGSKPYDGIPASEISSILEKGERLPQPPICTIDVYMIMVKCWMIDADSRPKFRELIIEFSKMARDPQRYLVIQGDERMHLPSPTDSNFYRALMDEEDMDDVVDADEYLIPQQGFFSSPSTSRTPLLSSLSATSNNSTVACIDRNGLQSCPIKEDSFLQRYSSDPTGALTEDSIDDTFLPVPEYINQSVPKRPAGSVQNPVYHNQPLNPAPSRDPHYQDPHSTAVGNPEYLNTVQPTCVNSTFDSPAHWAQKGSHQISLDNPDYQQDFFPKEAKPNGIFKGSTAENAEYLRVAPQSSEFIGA
Procedure, shortened: as §1

KIT(D816H) = biological target: T2, KIT(D816H) (Homo sapiens, UniProt P10721, D816H); conditions: read-out: % control
T2 construct: purchased KinomeScan®
T2 sequence (P10721 26-976 D816H): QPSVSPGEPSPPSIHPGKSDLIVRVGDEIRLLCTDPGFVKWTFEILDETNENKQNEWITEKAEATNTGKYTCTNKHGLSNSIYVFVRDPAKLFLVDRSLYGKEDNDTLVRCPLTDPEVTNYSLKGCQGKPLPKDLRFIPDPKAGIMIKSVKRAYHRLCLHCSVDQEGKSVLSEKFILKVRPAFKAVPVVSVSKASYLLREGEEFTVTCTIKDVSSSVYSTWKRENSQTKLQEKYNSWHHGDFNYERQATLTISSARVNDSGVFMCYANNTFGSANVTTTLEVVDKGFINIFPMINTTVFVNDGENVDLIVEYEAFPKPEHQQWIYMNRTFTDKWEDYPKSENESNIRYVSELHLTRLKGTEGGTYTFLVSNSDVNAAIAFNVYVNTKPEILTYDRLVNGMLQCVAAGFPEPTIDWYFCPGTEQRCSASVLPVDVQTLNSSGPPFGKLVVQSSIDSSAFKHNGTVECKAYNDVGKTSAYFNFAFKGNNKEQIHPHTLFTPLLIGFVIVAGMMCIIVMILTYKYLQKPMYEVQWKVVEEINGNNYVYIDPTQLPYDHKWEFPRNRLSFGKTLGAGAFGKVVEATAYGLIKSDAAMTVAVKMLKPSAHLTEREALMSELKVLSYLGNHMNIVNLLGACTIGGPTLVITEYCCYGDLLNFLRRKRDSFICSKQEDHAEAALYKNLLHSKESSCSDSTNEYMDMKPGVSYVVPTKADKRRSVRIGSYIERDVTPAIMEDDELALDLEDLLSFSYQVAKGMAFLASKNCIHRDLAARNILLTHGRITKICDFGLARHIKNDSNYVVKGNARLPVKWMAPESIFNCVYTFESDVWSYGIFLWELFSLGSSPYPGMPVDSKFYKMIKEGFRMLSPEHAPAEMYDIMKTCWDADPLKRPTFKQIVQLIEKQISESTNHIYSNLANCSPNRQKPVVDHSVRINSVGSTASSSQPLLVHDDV
Procedure, shortened: as §1

CSNK1G3 = CSNK1G3 (Homo sapiens, UniProt Q9Y6M4); conditions: CSNK1G3, 1 μM; read-out: % control
Sequence of CSNK1G3 (Q9Y6M4 whole entry): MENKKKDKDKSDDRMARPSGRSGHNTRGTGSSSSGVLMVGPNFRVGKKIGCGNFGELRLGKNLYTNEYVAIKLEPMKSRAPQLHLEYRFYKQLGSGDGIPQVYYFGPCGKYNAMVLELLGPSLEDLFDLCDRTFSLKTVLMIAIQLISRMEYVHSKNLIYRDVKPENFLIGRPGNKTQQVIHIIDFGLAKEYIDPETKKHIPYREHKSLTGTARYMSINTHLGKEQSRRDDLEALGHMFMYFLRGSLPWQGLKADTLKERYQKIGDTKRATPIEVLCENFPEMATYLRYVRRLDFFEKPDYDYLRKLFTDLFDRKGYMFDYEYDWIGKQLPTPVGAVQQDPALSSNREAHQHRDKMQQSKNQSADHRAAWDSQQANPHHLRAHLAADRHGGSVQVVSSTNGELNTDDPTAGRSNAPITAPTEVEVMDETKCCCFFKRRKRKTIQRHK
Procedure, shortened: as §1

[1] = biological target: T3, RSK3(Kin.Dom.1-N-terminal) (Homo sapiens, UniProt Q15349); conditions: read-out: % control
T3 construct: RSK3(Kin.Dom.1-N-terminal)
T3 sequence (Q15349 59-318 limits assumed): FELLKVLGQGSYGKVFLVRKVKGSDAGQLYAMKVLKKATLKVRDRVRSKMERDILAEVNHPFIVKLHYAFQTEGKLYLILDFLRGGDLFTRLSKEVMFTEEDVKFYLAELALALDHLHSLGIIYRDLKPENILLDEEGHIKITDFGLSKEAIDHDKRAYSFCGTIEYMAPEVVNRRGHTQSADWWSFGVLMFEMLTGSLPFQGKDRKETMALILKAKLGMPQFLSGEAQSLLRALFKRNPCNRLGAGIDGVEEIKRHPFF
Procedure, shortened: as §1

EGFR(L858R, T790M) = EGFR(L858R, T790M) (Homo sapiens, UniProt P00533, L858R/T790M); conditions: read-out: % control
Sequence of EGFR(L858R, T790M) (P00533 25-1210 T790M/L858R): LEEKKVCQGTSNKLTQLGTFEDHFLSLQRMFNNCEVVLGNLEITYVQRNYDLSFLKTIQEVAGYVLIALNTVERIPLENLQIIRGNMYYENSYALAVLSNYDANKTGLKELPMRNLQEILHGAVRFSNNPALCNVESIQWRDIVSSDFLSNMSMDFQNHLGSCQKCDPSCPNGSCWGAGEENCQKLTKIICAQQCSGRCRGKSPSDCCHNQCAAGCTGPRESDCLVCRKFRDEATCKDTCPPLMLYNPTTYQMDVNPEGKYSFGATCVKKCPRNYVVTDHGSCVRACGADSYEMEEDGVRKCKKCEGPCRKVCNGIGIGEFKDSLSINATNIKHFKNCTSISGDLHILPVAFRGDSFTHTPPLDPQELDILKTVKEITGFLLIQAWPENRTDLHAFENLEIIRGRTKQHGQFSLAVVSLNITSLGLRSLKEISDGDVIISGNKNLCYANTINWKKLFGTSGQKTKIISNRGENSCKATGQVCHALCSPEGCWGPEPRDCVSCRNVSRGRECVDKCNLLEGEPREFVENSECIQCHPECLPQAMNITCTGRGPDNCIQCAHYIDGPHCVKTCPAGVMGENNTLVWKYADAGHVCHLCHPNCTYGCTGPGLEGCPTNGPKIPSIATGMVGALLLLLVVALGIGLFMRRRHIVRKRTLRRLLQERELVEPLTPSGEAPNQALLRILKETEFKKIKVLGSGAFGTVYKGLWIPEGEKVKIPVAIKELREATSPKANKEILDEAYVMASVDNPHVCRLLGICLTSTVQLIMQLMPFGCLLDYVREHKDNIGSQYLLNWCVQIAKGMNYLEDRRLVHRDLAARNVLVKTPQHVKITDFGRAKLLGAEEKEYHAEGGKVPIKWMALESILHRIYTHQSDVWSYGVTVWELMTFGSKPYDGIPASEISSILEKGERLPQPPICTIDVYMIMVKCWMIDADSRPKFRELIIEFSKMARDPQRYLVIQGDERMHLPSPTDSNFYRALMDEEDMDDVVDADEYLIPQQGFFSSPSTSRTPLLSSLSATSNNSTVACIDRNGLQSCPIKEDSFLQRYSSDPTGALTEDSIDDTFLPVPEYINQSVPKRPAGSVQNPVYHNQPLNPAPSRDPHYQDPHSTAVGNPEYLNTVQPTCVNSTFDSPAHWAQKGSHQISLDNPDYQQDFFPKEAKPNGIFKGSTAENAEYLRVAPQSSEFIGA
Procedure, shortened: as §1

RIPK4 = biological target: T4, RIPK4 (Homo sapiens, UniProt P57078); conditions: RIPK4, 1 μM; read-out: % control
T4 sequence (P57078 1-832): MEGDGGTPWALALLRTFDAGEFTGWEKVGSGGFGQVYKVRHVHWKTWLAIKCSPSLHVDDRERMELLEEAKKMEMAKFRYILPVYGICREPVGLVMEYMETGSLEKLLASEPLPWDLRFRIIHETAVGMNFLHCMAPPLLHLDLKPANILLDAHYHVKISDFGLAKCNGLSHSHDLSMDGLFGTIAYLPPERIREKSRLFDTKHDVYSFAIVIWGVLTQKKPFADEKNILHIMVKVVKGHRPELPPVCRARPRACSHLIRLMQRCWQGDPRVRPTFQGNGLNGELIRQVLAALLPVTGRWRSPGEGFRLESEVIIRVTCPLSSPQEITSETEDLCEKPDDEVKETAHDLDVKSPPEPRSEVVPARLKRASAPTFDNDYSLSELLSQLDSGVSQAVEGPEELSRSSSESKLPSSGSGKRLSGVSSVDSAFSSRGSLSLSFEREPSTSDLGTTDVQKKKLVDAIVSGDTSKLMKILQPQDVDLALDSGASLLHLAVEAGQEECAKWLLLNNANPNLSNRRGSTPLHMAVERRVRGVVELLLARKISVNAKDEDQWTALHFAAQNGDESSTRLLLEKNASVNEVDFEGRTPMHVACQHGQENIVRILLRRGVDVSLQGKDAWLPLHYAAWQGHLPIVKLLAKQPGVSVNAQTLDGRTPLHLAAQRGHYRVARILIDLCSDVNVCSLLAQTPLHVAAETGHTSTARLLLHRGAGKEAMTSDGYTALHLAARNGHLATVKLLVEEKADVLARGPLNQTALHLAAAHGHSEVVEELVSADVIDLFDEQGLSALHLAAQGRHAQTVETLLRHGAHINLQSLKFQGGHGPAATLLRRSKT
Procedure, shortened: as §1

SMILES | remaining binding at 1 µM (LATS1) | remaining binding at 1 µM (EGFR(E746-A750del)) | remaining binding at 1 µM (KIT(D816H)) | remaining binding at 1 µM (CSNK1G3) | remaining binding at 1 µM [1] | remaining binding at 1 µM (EGFR(L858R, T790M)) | remaining binding at 1 µM (RIPK4)
CNc1c(-c2cnn([C@H]3CCN(C(C)=O)C[C@@H]3F)c2)cnc2[nH]cc(Cl)c12 [Compound 77, 1-((3S,4S)-4-(4-(3-chloro-4-(methylamino)-1H-pyrrolo[2,3-b]pyridin-5-yl)-1H-pyrazol-1-yl)-3-fluoropiperidin-1-yl)ethan-1-one] | 91% | 100% | 51% | 24% | 80% | 99% | 1.3%
O=C(c1ccc(-c2cnc3[nH]cc(Cl)c3c2NC2CCCC2)cc1)N1CCC(N2CCOCC2)CC1 [Compound 101, (4-(3-chloro-4-(cyclopentylamino)-1H-pyrrolo[2,3-b]pyridin-5-yl)phenyl)(4-morpholinopiperidin-1-yl)methanone] | 100% | 97% | 92% | 93% | 66% | 100% | 100%
CNc1c(-c2ccc(C(=O)N3CCC(N4CCOCC4)CC3)cc2)cnc2[nH]cc(Cl)c12 [Compound 96, (4-(3-chloro-4-(methylamino)-1H-pyrrolo[2,3-b]pyridin-5-yl)phenyl)(4-morpholinopiperidin-1-yl)methanone] | 100% | 93% | 75% | 16% | 78% | 98% | 7.8%
